Reference: publication PMC11558822, “Myc 9aaTAD activation domain binds to mediator of transcription with superior high affinity” (Molecular Medicine, 2024)
Residues, ends and D or L forms follow the SMILES beside them. No end group written: not given here. *: point of attachment. Biotin = O=C1N[C@H]2[C@H](CS[C@H]2CCCCC(=O)*)N1

Assays:
[1] = biological target: T1, KIX domain of CBP (Homo sapiens, UniProt Q92793); experiment: Bio-layer interferometry (BLI) of immobilized 9aaTAD peptides with KIX domain; assay type: binding; details: for Kd: BLI Octet RED96e, biotinylated peptide on streptavidin SA biosensors, KIX 0.31-5.0 μM, 20 mM sodium phosphate pH 6.0, 50 mM NaCl, 30 °C, steady-state 1:1 fit, average of pentaplicate, read-out: KD(apparent)
T1 construct: GST (N, cleaved yes); His6 (N, cleaved yes); made in house
T1 sequence (Q92793 587-666 limits assumed): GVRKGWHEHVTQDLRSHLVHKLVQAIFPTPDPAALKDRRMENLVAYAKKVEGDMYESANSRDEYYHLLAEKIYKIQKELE
Description: Bio-layer interferometry on Octet RED96e (ForteBio) was used for the analysis of interaction between KIX domain and proposed activation domains. All experiments were performed at 30 °C at 1000 rpm shaking. Streptavidin-bearing SA biosensors (ForteBio) were immersed for 300 s into the assay buffer (20 mM sodium phosphate pH 6.0, 50 mM NaCl) containing 60 μM biotinylated MLL, MYC or NMY peptide, respectively. After subsequent wash in the assay buffer, the final steady response of ligand reached 0.6–0.8 nm. Parallel blank sensor was treated the same way with pure assay buffer being used instead of biotinylated peptide solution in the immobilization step. For the binding assay, all sensors were used in parallel applying the following procedure: 120 s baseline in the assay buffer, 180 s association in the assay buffer containing increasing concentration of KIX domain for each cycle (0.31, 0.63, 1.25, 2.5 and 5.0 μM), 240 s dissociation in the assay buffer and 3 repetitions of 30 s regeneration in 50 mM NaOH followed by 30 s assay buffer wash. Each binding experiment was performed in pentaplicate and the data were processed using Data Analysis 11.1 evaluation SW (ForteBio). Obtained binding curves were blank-subtracted and fitted by a 1:1 binding model using steady state analysis. Final KD (apparent) values were calculated as an average of all measurements.

[2] = tested on: lacZ reporter driven by the lexA operator; experiment: One hybrid transactivation (β-galactosidase reporter) assay with LexA hybrids in yeast strain L40; assay type: cell-based, Saccharomyces cerevisiae; details: for ß-Gal: raw β-galactosidase activity; for Reporter activation (average value in %): β-galactosidase activity of LexA hybrid, % of positive control p53 construct 6p53 set to 100%, mean ± SD, n = 3; for normalized value in %: β-galactosidase, % of 6p53 mean; for activation function (times): one hybrid assay, presence versus absence of 9aaTAD (region 100–108) in the construct
[3] = replicate 1 (first sample of the construct)
[4] = replicate 2 (second sample of the construct)
[5] = replicate 3 (third sample of the construct)

| Compound | Kd [1] | Binding to KIX ([1]; BLI, KIX in the 3–16 μM range, negative control) | ß-Gal [2, 3] | ß-Gal [2, 4] | ß-Gal [2, 5] | Reporter activation (average value in %) [2] | normalized value in % [2, 3] | normalized value in % [2, 4] | normalized value in % [2, 5] | activation function (times) [2] |
| --- | --- | --- | --- | --- | --- | --- | --- | --- | --- | --- |
| CC[C@H](C)[C@H](NC(=O)[C@H](CC(=O)O)NC(=O)[C@H](CO)NC(=O)[C@@H]1CCCN1C(=O)[C@H](CC(C)C)NC(=O)[C@@H](NC(=O)[C@H](CC(N)=O)NC(=O)[C@H](CO)NC(=O)CNC(=O)CCCC[C@@H]1SC[C@@H]2NC(=O)N[C@@H]21)[C@@H](C)CC)C(=O)N[C@@H](CCSC)C(=O)N[C@@H](CC(=O)O)C(=O)N[C@@H](Cc1ccccc1)C(=O)N[C@H](C(=O)N[C@@H](CC(C)C)C(=O)N[C@@H](CCCCN)C(=O)N[C@@H](CC(N)=O)C(=O)N[C@H](C(=O)O)[C@@H](C)O)C(C)C [MLL, reference compound] (Biotin-GSNILPSDIMDFVLKNT-OH) | 1170 ± 210 nM | – | – | – | – | – | – | – | – | – |
| CSCC[C@H](NC(=O)[C@H](CCC(=O)O)NC(=O)[C@@H](NC(=O)[C@@H](NC(=O)[C@H](Cc1c[nH]c2ccccc12)NC(=O)[C@H](CO)NC(=O)[C@@H]1CCCN1C(=O)[C@@H]1CCCN1C(=O)[C@H](CCC(=O)O)NC(=O)[C@H](CO)NC(=O)[C@H](CO)NC(=O)[C@H](CO)NC(=O)CNC(=O)CCCC[C@@H]1SC[C@@H]2NC(=O)N[C@@H]21)C(C)C)[C@@H](C)O)C(=O)N[C@@H](CC(C)C)C(=O)N[C@@H](CC(C)C)C(=O)N[C@@H](CCC(=O)O)C(=O)N[C@@H](CC(N)=O)C(=O)O [N-Myc] (Biotin-GSSSEPPSWVTEMLLEN-OH) | 880 ± 110 nM | – | – | – | – | – | – | – | – | – |
| CC(C)C[C@H](NC(=O)[C@H](CC(=O)O)NC(=O)[C@H](CC(=O)O)NC(=O)[C@H](CC(C)C)NC(=O)[C@H](CC(=O)O)NC(=O)[C@H](CC(C)C)NC(=O)[C@@H](NC(=O)[C@H](CC(=O)O)NC(=O)[C@H](Cc1c[nH]c2ccccc12)NC(=O)[C@H](CO)NC(=O)[C@@H](NC(=O)[C@H](CC(=O)O)NC(=O)CNC(=O)[C@H](CO)NC(=O)[C@H](CO)NC(=O)CNC(=O)CCCC[C@@H]1SC[C@@H]2NC(=O)N[C@@H]21)C(C)C)[C@@H](C)O)C(=O)N[C@@H](CC(=O)O)C(=O)O [Sp1-Ac] (Biotin-GSSGDVSWDTLDLDDLD-OH) | 9770 ± 1570 nM | – | – | – | – | – | – | – | – | – |
| CSCC[C@H](NC(=O)[C@H](CCC(=O)O)NC(=O)[C@H](CC(C)C)NC(=O)[C@H](CCC(N)=O)NC(=O)[C@@H](NC(=O)[C@H](CO)NC(=O)[C@H](CO)NC(=O)[C@H](CO)NC(=O)CNC(=O)CCCC[C@@H]1SC[C@@H]2NC(=O)N[C@@H]21)[C@@H](C)O)C(=O)N[C@H](C(=O)N[C@H](C(=O)N[C@@H](CCC(=O)O)C(=O)N[C@@H](CC(C)C)C(=O)N[C@@H](CC(C)C)C(=O)NCC(=O)O)[C@@H](C)O)C(C)C [c-Myc] (Biotin-GSSSTQLEMVTELLG-OH) | 2160 ± 1170 nM | – | – | – | – | – | – | – | – | – |
| Biotin—GSS- GQ VSWQ T LQLQ NLQ [native Sp1, biotinylated native Sp1 9aaTAD peptide, negative control for BLI, reference compound] | – | did not bind | – | – | – | – | – | – | – | – |
| c-Myc region 69-103: LexA hybrid construct of c-Myc region 69–103 without 9aaTAD (ELLPTPPLSPSRRSGLCSPSYVAVTPFSLRGDNDG; LexA fusion; UniProt P01106 69-103, looked up, fragment) | – | – | 74 | 83 | 71 | 29% | 27% | 31% | 26% | – |
| c-Myc region 69-108: LexA hybrid construct of c-Myc region 69–108 with 9aaTAD (ELLPTPPLSPSRRSGLCSPSYVAVTPFSLRGDNDGGGGSF; LexA fusion; UniProt P01106 69-108, looked up, fragment) | – | – | 255 | 241 | 242 | 90% | 93% | 88% | 89% | 3 times |
| c-Myc region 98-108: LexA hybrid construct of alone-standing c-Myc 9aaTAD activation domain (RGDNDGGGGSF; also: LexA fusion; UniProt P01106 98-108, looked up, fragment) | – | – | 191 | 185 | 169 | 67% | 70% | 68% | 62% | 67 times |
